As usually defined, the EC50 is the concentration needed to bring the measured effect to its halfway point.

In the first assay the test system is HCV replicon (HCV1b sub-genomic, Huh-7 cells). Put plainly: HCV replicon RNA replication assay (luciferase reporter). Format: cell-based, Hepatitis C virus (CON-1 genotype b). Conditions: Hepatitis C virus, Huh-7. The protocol:
All curve fitting was conducted using non-linear regression analyses from PRISM (version 4.0c, GraphPad Inc.) and the determination of Rmax and EC50 or IC50 parameters were obtained from sigmoidal dose-response phase (variable slope) equation.
The replicon HCV1b is generated based on the wild-type sequence CON-1 genotype b (GenBank accession number AJ238799; Lohmann et al., Science 1999, 285: 110-113) and expressed the sub-genomic fragment HCV NS3-NS4A-NS4B-NS5A-NS5B. The replicon contain a hybrid HCV-IRES 5′UTR, a modified luciferase reporter gene expressed as a luciferase-Ubi-neomycin phosphotransferase gene fusion and an EMCV IRES NS3-NS5B subgenomic fragment with its 3′UTR. To generate cell lines harboring the replicon, Huh-7 cells are electroporated with purified in vitro HCV1b RNA transcripts and stable cell lines are selected in the presence of G418. Stable replicon cell lines are established as described in Science 1999, 285: 110-113. The amount of luciferase expressed by selected cells directly correlates with the level of HCV RNA replication, as measured by real-time PCR.
Stable HCV replicon cells are maintained in Dulbecco's Modified Eagle Medium (DMEM) supplemented with 10% FBS and 0.5 mg/ml G418. During the assay, DMEM supplemented with 10% FBS, containing 0.5% DMSO and lacking G418 are used as assay medium. For the assay, cell stocks are trypsinized and diluted in assay medium to distribute 7,500 cells in 96-well plates. The plates are then incubated at 37° until compound addition. Serial dilutions of the test compound are prepared in 100% DMSO, before dilution in assay medium to a final DMSO concentration of 0.5% to generate a concentration dose response curves. A fixed volume from each well of the compound dilution plate is transferred to a corresponding well of the cell culture plate. The cell culture plate is incubated at 37° C. with 5% CO2 for 72 hours. Following the 72 h incubation period, the medium is aspirated from the 96-well assay plate and a volume of 50_l of lysis buffer 100 mM Tris acetate, 20 mM Mg acetate, 2 mM EGTA, 3.6 mM ATP, 1% Brij 58, 0.7%_-mercaptoethanol containing 45_g/ml luciferine (pH 7.9) is added to each well. The luciferase activity is determined using the luciferase substrate and the luminescence is detected on a MicroBeta JET 1450 LSC & Luminescence Counter (Perkin Elmer) instrument. The luminescence in each well of the culture plate is a measure of the amount of HCV RNA replication in the presence of various concentrations of inhibitor. The % inhibition is calculated for each inhibitor concentration and used to determine the concentration that results in 50% inhibition of HCV replication (EC50).
`Cc1noc(-c2ccc(Cl)cc2)c1C(=O)O/N=C(\N)c1ccc(Cl)cc1` [Compound 60, reference compound] had an EC50 of 500 to 1000 nM.
Turning to `Cc1noc(C)c1C(=O)O/N=C(\N)c1cccc(C(F)(F)F)c1` [Compound 61, reference compound], the concentration for a half-maximal effect (EC50) was in the range of 1000 to 10000 nM.
Compound `Cc1noc(C)c1C(=O)O/N=C(\N)c1ccc(-c2csnn2)cc1` [Compound 62, reference compound] yielded an EC50 of 500 to 1000 nM.
Consider `Cc1noc(C)c1C(=O)O/N=C(\N)Cc1ccc(-c2csnn2)cc1` [Compound 63, reference compound], for which the EC50 was in the range of 500 to 1000 nM.
Regarding `Cc1onc(-c2ccccc2Cl)c1C(=O)O/N=C1/CCCCN1` [Compound 64, reference compound], the 50% effective concentration (EC50) is < 500 nM.

The assay is the same for the next values; noted with them: Hepatitis C virus, Huh-7, 72 h, read-out: EC50 (Range).
Take `N/C(=N\OC(=O)c1conc1-c1ccccc1Cl)c1ccc2c(c1)OCO2` [Example 1, (Z)—N′-((3-(2-chlorophenyl)isoxazole-4-carbonyl)oxy)benzo[d][1,3]dioxole-5-carboximidamide]: the 50% effective concentration (EC50) is 1000 to 10000 nM.
On the same count and under the same terms, as for `COc1ccc(C/C(N)=N/OC(=O)c2c(C)cccc2C)c(OC)c1` [Example 2, (Z)-2-(2,4-dimethoxyphenyl)-N′-((2,6-dimethylbenzoyl)oxy)acetimidamide], the figure is < 500 nM; as for `COc1ccccc1/C(N)=N/OC(=O)c1c(C)cccc1C` [Example 3, (Z)—N′-((2,6-dimethylbenzoyl)oxy)-2-methoxybenzimidamide], < 500 nM; as for `N/C(=N\OC(=O)c1c(C(F)(F)F)cccc1C(F)(F)F)c1ccc2c(c1)OCO2` [Example 4, (Z)—N′-((2,6-bis(trifluoromethyl)benzoyl)oxy)benzo[d][1,3]dioxole-5-carboximidamide], 1000 to 10000 nM.
Still for that read-out and setting: the same measure for `COc1ccc(C/C(N)=N/OC(=O)c2ccccc2-c2ccccc2)cc1` [Example 5, (Z)—N′-(([1,1′-biphenyl]-2-carbonyl)oxy)-2-(4-methoxyphenyl)acetimidamide]: < 500 nM; for `CC(C)(C(=O)O/N=C(\N)c1ccc2c(c1)OCO2)c1ccccc1` [Example 6, (Z)—N′-((2-methyl-2-phenylpropanoyl)oxy)benzo[d][1,3]dioxole-5-carboximidamide]: 500 to 1000 nM; for `COc1ccccc1C/C(N)=N/OC(=O)c1c(C)cccc1C` [Example 7, (Z)—N′-((2,6-dimethylbenzoyl)oxy)-2-(2-methoxyphenyl)acetimidamide]: 500 to 1000 nM.
As to `Cc1cccc(C)c1C(=O)O/N=C(\N)CCc1ccc(Br)cc1` [Example 8, (Z)-3-(4-bromophenyl)-N′-((2,6-dimethylbenzoyl)oxy)propanimidamide], the concentration giving a half-maximal response (EC50) is < 500 nM.
Regarding `CC(C(=O)O/N=C(\N)c1ccc2c(c1)OCO2)(c1ccccc1)c1ccccc1` [Example 9, (Z)—N′-((2,2-diphenylpropanoyl)oxy)benzo[d][1,3]dioxole-5-carboximidamide], the EC50 is < 500 nM.
For `Cc1onc(-c2ccccc2Cl)c1C(=O)O/N=C(\N)CCc1ccc(Br)cc1` [Example 10, (Z)-3-(4-bromophenyl)-N′-((3-(2-chlorophenyl)-5-methylisoxazole-4-carbonyl)oxy)propanimidamide], the EC50 is < 500 nM.
Regarding `N/C(=N\OC(=O)c1c(-c2ccccc2Cl)noc1C1CC1)c1ccc2c(c1)OCO2` [Example 11, (Z)—N′-((3-(2-chlorophenyl)-5-cyclopropylisoxazole-4-carbonyl)oxy)benzo[d][1,3]dioxole-5-carboximidamide], the concentration for a half-maximal effect (EC50) was < 500 nM.
Consider `CC(C)c1onc(-c2ccccc2Cl)c1C(=O)O/N=C(\N)c1ccc(OCc2ccc(Cl)cc2)cc1` [Example 12, (Z)-4-((4-chlorobenzyl)oxy)-N′-((3-(2-chlorophenyl)-5-isopropylisoxazole-4-carbonyl)oxy)benzimidamide], for which the EC50 lay within 500 to 1000 nM.
In the case of `N/C(=N\OC(=O)c1c(-c2ccccc2Cl)noc1Cc1ccccc1)c1ccc2c(c1)OCO2` [Example 13, (Z)—N′-((5-benzyl-3-(2-chlorophenyl)isoxazole-4-carbonyl)oxy)benzo[d][1,3]dioxole-5-carboximidamide], the concentration giving a half-maximal response (EC50) is < 500 nM.
On the same count and under the same terms, as for `CN/C(=N\OC(=O)c1c(-c2ccccc2Cl)noc1C)c1ccc2c(c1)OCO2` [Example 14, (Z)—N′-((3-(2-chlorophenyl)-5-methylisoxazole-4-carbonyl)oxy)-N-methylbenzo[d][1,3]dioxole-5-carboximidamide], the figure is < 500 nM.
As for `COc1ccccc1C/C(N)=N/OC(=O)c1c(-c2ccccc2Cl)noc1C(C)C` [Example 15, (Z)—N′-((3-(2-chlorophenyl)-5-isopropylisoxazole-4-carbonyl)oxy)-2-(2-methoxyphenyl)acetimidamide], the half-maximal effective concentration (EC50) is < 500 nM.
Regarding `COCc1onc(-c2ccccc2Cl)c1C(=O)O/N=C(\N)c1ccc2c(c1)OCO2` [Example 16, (Z)—N′-((3-(2-chlorophenyl)-5-(methoxymethyl)isoxazole-4-carbonyl)oxy)benzo[d][1,3]dioxole-5-carboximidamide], the 50% effective concentration (EC50) fell in the range of 500 to 1000 nM.
Take `N/C(=N\OC(=O)c1c(-c2ccccc2Cl)noc1-c1ccncc1)c1ccc2c(c1)OCO2` [Example 17, (Z)—N′-((3-(2-chlorophenyl)-5-(pyridin-4-yl)isoxazole-4-carbonyl)oxy)benzo[d][1,3]dioxole-5-carboximidamide]: the EC50 is 1000 to 10000 nM.
As for `N/C(=N\OC(=O)c1c(-c2ccccc2Cl)noc1-c1ccccc1)c1ccc2c(c1)OCO2` [Example 18, (Z)—N′-((3-(2-chlorophenyl)-5-phenylisoxazole-4-carbonyl)oxy)benzo[d][1,3]dioxole-5-carboximidamide], the EC50 lay in the range of 500 to 1000 nM.
Regarding `Cc1onc(-c2ccccc2Cl)c1C(=O)O/N=C(/c1ccc2c(c1)OCO2)N(C)C` [Example 19, (Z)—N′-((3-(2-chlorophenyl)-5-methylisoxazole-4-carbonyl)oxy)-N,N-dimethylbenzo[d][1,3]dioxole-5-carboximidamide], the concentration giving a half-maximal response (EC50) was in the range of 1000 to 10000 nM.
Still for that read-out and setting: as for `CCCCN/C(=N\OC(=O)c1c(-c2ccccc2Cl)noc1C)c1ccc2c(c1)OCO2` [Example 20, (Z)—N-butyl-N′-((3-(2-chlorophenyl)-5-methylisoxazole-4-carbonyl)oxy)benzo[d][1,3]dioxole-5-carboximidamide], the figure is < 500 nM; as for `Cc1onc(-c2ccccc2Cl)c1C(=O)O/N=C(\NCc1cccnc1)c1ccc2c(c1)OCO2` [Example 21, (Z)—N′-((3-(2-chlorophenyl)-5-methylisoxazole-4-carbonyl)oxy)-N-(pyridin-3-ylmethyl)benzo[d][1,3]dioxole-5-carboximidamide], 500 to 1000 nM; as for `COc1ccccc1C/C(N)=N/OC(=O)c1c(-c2ccccc2Cl)noc1C` [Example 22], < 500 nM.
With `COc1ccc(C/C(N)=N/OC(=O)c2c(-c3ccccc3Cl)noc2C)cc1` [Example 23, (Z)—N′-((3-(2-chlorophenyl)-5-methylisoxazole-4-carbonyl)oxy)-2-(4-methoxyphenyl)acetimidamide], the EC50 was in the range of 500 to 1000 nM.
For the compound `Cc1onc(-c2ccccc2Cl)c1C(=O)O/N=C(\N)Cc1nc2ccccc2s1` [Example 24, (Z)-2-(benzo[d]thiazol-2-yl)-N′-((3-(2-chlorophenyl)-5-methylisoxazole-4-carbonyl)oxy)acetimidamide], the concentration for a half-maximal effect (EC50) is 1000 to 10000 nM.
Same read-out and setting: as for `Cc1ccc(/C(N)=N/OC(=O)c2cc(C)oc2C)cc1` [Example 25, (Z)—N′-((2,5-dimethylfuran-3-carbonyl)oxy)-4-methylbenzimidamide], the figure is 1000 to 10000 nM.
Consider `Cc1cc(C)c(C(=O)O/N=C(\N)c2ccc3c(c2)OCO3)c(C)c1` [Example 26, (Z)—N′-((2,4,6-rimethylbenzoyl)oxy)benzo[d][1,3]dioxole-5-carboximidamide], for which the EC50 was < 500 nM.
Take `COc1ccccc1C/C(N)=N/OC(=O)c1ccccc1-c1ccccc1C(=O)OC(C)C` [Example 28, (Z)-isopropyl 2′-((((1-amino-2-(2-methoxyphenyl)ethylidene)amino)oxy)carbonyl)-[1,1′-biphenyl]-2-carboxylate]: the EC50 was < 500 nM.
With `Cc1cccc(-c2ccccc2)c1C(=O)O/N=C(\N)c1ccc(OCc2ccc(Cl)cc2)cc1` [Example 29, (Z)-4-((4-chlorobenzyl)oxy)-N′-((3-methyl-[1,1′-biphenyl]-2-carbonyl)oxy)benzimidamide], the EC50 was < 500 nM.

The values above are taken from patent US20150133495A1 (ViroCura Therapeutics, Inc., priority 2013, published 2015).
